pIC50: −log10 of the molar value.
Assays:
SARS-CoV-2 = conditions: in words; cited from earlier work
SARS-CoV-1 = conditions: cited from earlier work
MERS = conditions: cited from earlier work
[1] = tested on: SARS-CoV-2 Spike pseudotyped particle (PP); assay: microbe, parasite or virus in culture; type: cell-based; conditions: Severe acute respiratory syndrome coronavirus 2, read-out: SARS-CoV-2 PP IC50

Row | Structure (SMILES) | inhibitory activity against SARS-CoV-2 in the PP entry assay (SARS-CoV-2) | inhibitory activity against SARS-CoV-1 in the PP entry assay (SARS-CoV-1) | inhibitory activity against MERS in the PP entry assay (MERS) | pIC50 [1]
1 | CN1CCN(C(c2ccccc2)c2ccc(Cl)cc2)CC1 (stereo not shown) [CCZ, chlorcyclizine] | inhibitory activities | inhibitory activities | inhibitory activities | 
2 | CN1[C@@H]2CC[C@H]1C[C@@H](OC(c1ccccc1)c1ccc(Cl)cc1)C2 (stereo partly shown) [Clobenztropine] |  |  |  | 4.90
